# Test results from US20100129432A1, “MICROORGANISM-KILLING COMBINATION” (TAIPEI MEDICAL UNIVERSITY, priority 2008, published 2010).
# What was measured:
# [1] = test system: Staphylococcus aureus (BCRC 10780); assay: Rose Bengal, Methylene Blue and Chlorin e6 mediated PDI with or without chitosan, survival fraction; assay type: cell-based
# Candida albicans = assay: Toluidine blue or Methylene Blue mediated PDI with or without 0.6% chitosan, survival fraction; conditions: for PDI effect (survival fraction): 0.5 mM photosensitizer, 630±5 nm LED 50 J/cm^2, without chitosan; for survival fraction of Candida albicans: 0.6% (w/v) chitosan added after the PDI, 50 J/cm^2
compound,measurement,setting,value
"CN(C)c1ccc2nc3ccc(=[N+](C)C)cc-3sc2c1 [MB, methylene blue]",PDI effect (survival fraction),"[1]; 2 μM MB, 0 J/cm^2, without chitosan",ineffective
same,PDI effect (survival fraction),"[1]; 2 μM MB, 0.025% (w/v) chitosan",significantly enhanced
same,PDI effect (survival fraction),"[1]; 2 μM MB, 0.025% (w/v) chitosan, 10-20 J/cm^2",complete eradication
same,PDI effect (survival fraction),"[1]; 2 μM MB, 5 J/cm^2, without chitosan",slightly effective
same,PDI effect (survival fraction),"[1]; 2 μM MB, 10-20 J/cm^2, without chitosan",apparently more effective than the lower dose
same,PDI effect (survival fraction),Candida albicans,partially effective
same,survival fraction of Candida albicans,Candida albicans,greatly reduced
"O=C1OC2(c3cc(I)c(O)c(I)c3Oc3c2cc(I)c(O)c3I)c2c(Cl)c(Cl)c(Cl)c(Cl)c21 [RB, Rose Bengal]",PDI effect (survival fraction),"[1]; 0.025 μM RB, 25 J/cm^2, 0.025% chitosan",complete removal of the bacteria
same,PDI effect (survival fraction),"[1]; 0.025 μM RB, 25 J/cm^2, without chitosan",not able to result in complete eradication
"Cc1cc2nc3ccc(N(C)C)cc3[s+]c2cc1N.[Cl-] [TB, toluidine blue]",PDI effect (survival fraction),Candida albicans,partially effective
same,survival fraction of Candida albicans,Candida albicans,greatly reduced
chlorine e6 [Ce6],PDI effect (survival fraction),"[1]; 0.05 μM Ce6, 0.1% (w/v) chitosan, 10 J/cm^2",complete eradication
same,PDI bacterial killing effect,"[1]; 0.05 μM Ce6 with chitosan, concentration dependent manner (0.01-0.1 μM)",significantly enhance
